# Columns and labels:
# sst4 receptor = target: T1, sst4 receptor (Homo sapiens, UniProt P31391); assay: sst4 receptor-linked G-protein activation, [35S]GTPγS binding assay on membranes of sst4-expressing CHO cells; type: biochemical; conditions: for EC50: 1 nM to 10 µM, n = 3; for Emax: [35S]GTPγS binding, mean ± SEM, n = 3, read-out: Maximal activation over the basal activity of the receptor (efficacy)
# T1 construct: expressed in transfected cells; host or cells: CHO cells
# Protocol: Membrane fractions were prepared from CHO cells, which express the sst4 receptor, in Tris–ethylene glycol-bis(2-aminoethyl)tetraacetic acid (Tris–EGTA) buffer (50 mM Tris–HCl (Sigma, St. Louis, MO, USA), 1 mM EGTA (Sigma, St. Louis, MO, USA), 3 mM MgCl2 (Sigma, St. Louis, MO, USA), 100 mM NaCl (Sigma, St. Louis, MO, USA), pH 7.4, 10 μg of protein/sample). The fractions were incubated in the buffer containing 0.05 nM guanosine triphosphate (GTP) (BioChemica International Inc., Melbourne, Florida, USA), labeled on the gamma phosphate group with ^35S ([^35S]GTPγS) (Isotop Institute, Budapest, Hungary) and increasing concentrations (1 nM to 10 µM) of C1, C2, C3 and C4 compounds for 60 min at 30 °C, in the presence of 30 μM guanosine diphosphate (GDP) (Sigma, St. Louis, MO, USA). We determined the nonspecific binding in the presence of 10 μM unlabeled GTPγS and total binding in the absence of test compounds. Samples were filtrated through Whatman GF/B glass fiber filters using 48-well Slot Blot Manifold from Cleaver Scientific (Cleaver Scientific Ltd., Rugby, Warwickshire, United Kingdom). Filters were washed with ice-cold 50 mM Tris–HCl buffer (pH 7.4) and radioactivity was measured in a β-counter (PerkinElmer Inc., Waltham, MA, USA). The test-compound-induced G-protein activation was given as percentage over the specific [^35S]GTPγS binding detected in the absence of agonists.
# (§1) In the sst4 receptor activation assay, all the compounds were dissolved in dimethyl sulfoxide (DMSO) (Szkarabeusz Ltd., Pécs, Hungary). The concentration of the stock solutions was 10 mM and was diluted with distilled water to reach the final concentrations. For the in vivo experiments, 1 mg of the compounds was rubbed dry in a braying mortar, suspended thoroughly in 1 mL 1.25% methylcellulose (MC) (Pharmacy of University of Pécs, Pécs, Hungary) solution and then dissolved in sterile bidistilled water to get a 1000 µg/mL stock solution freshly every experimental day. Most microsuspensions looked opalescent; they were shaken properly, sonicated, and further diluted with 1.25% MC to obtain the 25 µg/mL solution for oral administrations (0.2 mL/10 g body weight for the 500 µg/kg dose). The solutions were shaken and sonicated again directly before use. The vehicle was always 1.25% MC dissolved in sterile bidistilled water.
# Male NMRI mice [1] = assay: RTX-induced acute neurogenic inflammatory thermal allodynia and mechanical hyperalgesia; type: in vivo, mouse; conditions: oral pretreatment 1 h before intraplantar RTX, printed dose 500 µg/kg
# Protocol: The investigated compounds (500 µg/kg p.o.) or the vehicle were administered orally 1 h before the induction of the acute neurogenic inflammation by intraplantar RTX (Sigma, St. Louis, MO, USA) injection (20 µL, 0.1 µg/mL) into the right hindpaw. RTX evokes an acute neurogenic inflammatory reaction with the development of a rapid thermal allodynia, mainly due to peripheral sensitization mechanisms, and a later developing mechanical hyperalgesia due also to central sensitization. The nociceptive heat threshold was determined before (control) and 10, 20 and 30 min after RTX administration with an increasing-temperature hot plate (IITC Life Science, Woodland Hills, CA, USA). […] The mechanonociceptive threshold was measured with an electronic von Frey device (dynamic plantar aesthesiometer (DPA), Ugo Basile, Comerio, Italy) prior to RTX injection and 30, 60 and 90 min afterwards. The measurement at 30 min was performed immediately after the last heat threshold measurement. The experiment consisted of two separate series on consecutive days and the number of animals in the control group was six per day. Therefore, the control group contained 12 mice, and six and five mice were used in the C1- and C2-treated groups, respectively.
# as §1
# Male NMRI mice (8–12 weeks old) bred in the Laboratory Animal House of the Department of Pharmacology and Pharmacotherapy of the University of Pecs were kept in standard plastic cages at 24–25 °C, under a 12–12 h light–dark cycle and provided with standard rodent chow and water ad libitum. […]
# Male NMRI mice [2] = assay: Partial sciatic nerve ligation-induced chronic traumatic neuropathic mechanical hyperalgesia; type: in vivo, mouse
# Protocol: After conditioning and two control mechanonociceptive measurements on 2 consecutive days, mice were anaesthetized by the combination of ketamine (100 mg/kg, i.p.) and xylazine (10 mg/kg, i.p.). Traumatic mononeuropathy was achieved by one-third to one-half part ligation of the right sciatic nerve. Significant decrease in the mechanical threshold develops 7 days after operation. The mechanonociceptive threshold of the plantar surface of the hindpaws was measured by DPA on the 7th postoperative day. The paw withdrawal threshold was obtained in grams (the maximal value was 10 g; ramp time of 4 s). The compounds (500 µg/kg) or the vehicle were administered orally on day 7, one hour before the repeated measurement. The experiment consisted of separate series on 3 consecutive days, and there were 2–3 vehicle-treated control animals in every series. Therefore, each group contained 8 mice.
# as §1
# Male NMRI mice (8–12 weeks old) bred in the Laboratory Animal House of the Department of Pharmacology and Pharmacotherapy of the University of Pecs were kept in standard plastic cages at 24–25 °C, under a 12–12 h light–dark cycle and provided with standard rodent chow and water ad libitum. All experimental procedures complied with the recommendations of the 1998/XXVIII Act of the Hungarian Parliament on Animal Protection and Consideration Decree of Scientific Procedures of Animal Experiments (63/2010) and were approved by the Ethics Committee on Animal Research of Pecs University according to the Ethical Codex of Animal Experiments; license was given (license No. BA1/35/55-50/2017). We made all efforts to minimize the number and suffering of the animals used in this study.
# [3] = parameters: method as in PMID 30232095; conditions: native peptide ref 9; cited from earlier work
# Male NMRI mice [4] = system: Male NMRI mice; parameters: method as in PMID 16697366, PMID 12122501; conditions: 10–100 µg/kg i.p. ref 15, 27; cited from earlier work
# [5] = day 7 after sciatic nerve ligation, 500 µg/kg oral, 1 h later, n = 8
# [6] = day 7 after sciatic nerve ligation, pretreatment self-control, n = 8
# T1 sequence (P31391 whole entry): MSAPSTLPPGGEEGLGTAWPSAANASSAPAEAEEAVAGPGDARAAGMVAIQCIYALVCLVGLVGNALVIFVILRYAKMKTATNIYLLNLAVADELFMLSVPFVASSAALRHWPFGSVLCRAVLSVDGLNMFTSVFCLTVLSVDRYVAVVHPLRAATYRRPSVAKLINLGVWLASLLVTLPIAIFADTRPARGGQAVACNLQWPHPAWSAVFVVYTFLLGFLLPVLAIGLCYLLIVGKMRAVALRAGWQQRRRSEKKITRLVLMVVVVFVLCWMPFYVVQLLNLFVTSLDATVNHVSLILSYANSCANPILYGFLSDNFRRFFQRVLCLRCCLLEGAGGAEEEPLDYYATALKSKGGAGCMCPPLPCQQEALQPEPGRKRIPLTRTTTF
molecule,measurement,setting,value
"COc1ccc(CCNc2ncnc3c2c(C)c(C)n3Cc2ccccc2)cc1 [Compound 2, (7-Benzyl-5,6-dimethyl-7H-pyrrolo[2,3-d]pyrimidin-4-yl)-[2-(4-methoxy-phenyl)-ethyl]-amine]",EC50,sst4 receptor,66 nM
same,Emax,sst4 receptor,203%
same,Effect on acute neurogenic inflammatory heat hyperalgesia,Male NMRI mice [1]; at 10 and 30 min,not
same,Effect on RTX-induced mechanical hyperalgesia,Male NMRI mice [1]; at 30 min,not
same,"Mechanonociceptive threshold of operated limb, 1 h after treatment",Male NMRI mice [2]; [5],8.04 ± 0.31 g
same,"Neuropathic mechanical hyperalgesia, 1 h after treatment",Male NMRI mice [2]; [5],15.70% ± 2.84
same,"Mechanonociceptive threshold of operated limb, before treatment",Male NMRI mice [2]; [6],6.53 ± 0.30 g
same,"Neuropathic mechanical hyperalgesia, before treatment",Male NMRI mice [2]; [6],31.39% ± 3.39
same,Anti-hyperalgesic effect on neuropathic mechanical hyperalgesia,"Male NMRI mice [2]; traumatic nerve injury, single oral 500 µg/kg",50%
somatostatin: native peptide released from capsaicin-sensitive sensory nerve terminals,Elimination half-life,[3],< 3 min
"COc1ccc(CNc2ncnc3c2c(C)c(C)n3Cc2ccccc2)cc1 [Compound 4, 4-Methoxy-benzyl-[7-benzyl-5,6-dimethyl-7H-pyrrolo[2,3-d]pyrimidin-4-yl]-amine]",EC50,sst4 receptor,70 nM
same,Emax,sst4 receptor,177%
Cc1ccc(S(=O)(=O)N[C@@H](CCN)C(=O)N[C@@H](Cc2ccccc2)C(N)=O)c2ccccc12 [Compound J-2156],Analgesic effect in partial sciatic nerve ligation model,Male NMRI mice [4],potent and dose-dependent analgesic effects

# — article PMC6940912, “Novel Drug-Like Somatostatin Receptor 4 Agonists are Potential Analgesics for Neuropathic Pain” (International Journal of Molecular Sciences, 2019)
